Assay results taken from PubChem BioAssay AID179 (DTP/NCI, 2004).
Activity calls are given as the source filed them.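 The calls were made as follows: active = compounds giving half or more protection of infected cells from virus-caused growth loss, again on retest; inactive = the rest.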 Where a SMILES comes first, the peptide text is derived from it.

System: CEM cells HIV-1 protection, formazan growth assay
Assay: NCI AIDS Antiviral Assay
Settings: for IC50: measured here: growth of uninfected CEM cells
Summary of the method: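 Screen of anti-HIV-1 activity in human CEM cells using a formazan-based growth measurement at five drug concentrations. Hits with 50% or greater protection were repeated, and confirmation required reproducible complete protection.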

SMILES: COP(=O)(OC)/C(=C\c1cn(C(c2ccccc2)(c2ccccc2)c2ccccc2)cn1)NC(C)=O
- EC50: > 200 µM
- IC50: 83.2 µM

SMILES: O=C1CC2(CCC(O)(c3ccccc3)C(C(=O)c3ccccc3)C2)C(=O)c2ccccc2N1 (centres undefined)
- EC50: > 200 µM
- IC50: > 200 µM

SMILES: C[N+](C)(C)CC(=O)N/N=C/c1oc(-c2c(O)ccc3ccccc23)c(-c2c(O)ccc3ccccc23)c1[N+](=O)[O-]
- EC50: > 45.7 µM
- IC50: 24.5 µM

SMILES: O=c1/c(=C\c2ccccc2Cl)sc2n1CCN=2
- outcome: inactive

SMILES: Cc1c(CCl)c(=O)oc2c(C)c3occ(CCl)c(=O)c3cc12
- EC50: > 11.2 µM
- IC50: 4.9 µM

SMILES: CC1=C/C(=C(/c2ccccc2S(=O)(=O)O)c2cc(C)c(O)c(CN(CC(=O)O)CC(=O)O)c2C)C(C)=C(CN(CC(=O)O)CC(=O)O)C1=O
- outcome: inactive

SMILES: COc1ccc(C2S/C(=C\c3ccccc3)C(=O)N2NC(=O)Cc2ccccc2)cc1 (centres undefined)
- EC50: > 23.4 µM
- IC50: 19.1 µM

SMILES: Cc1ccc(S(=O)(=O)SCc2ccccc2CSS(=O)(=O)c2ccc(C)cc2)cc1
- outcome: inactive

SMILES: Cc1cn(Cc2ccccc2CCO)c(=S)[nH]c1=O
- EC50: > 912 µM
- IC50: > 912 µM

SMILES: Cc1ccc(-n2cc(-c3ccc(Cl)cc3)c(C#N)c2N)cc1
- EC50: > 200 µM
- IC50: 22.4 µM

SMILES: O=C(CCCl)NNC1=NCCCCN1
- EC50: > 200 µM
- IC50: > 200 µM

SMILES: O=C1Cc2c(-c3ccc(Cl)cc3)cc(-c3ccccc3)nc2-c2ccccc2N1
- EC50: > 100 µM
- IC50: 28.8 µM

SMILES: O=c1[nH]c2ncccc2c(=O)n1OS(=O)(=O)c1ccccc1
- EC50: > 200 µM
- IC50: 135 µM

SMILES: c1ccc(CN2COc3c(ccc4ccccc34)C2)cc1
- EC50: > 200 µM
- IC50: 55 µM

SMILES: CCN(CC)CCOC(=O)/C=C/c1ccccc1
- outcome: inactive

SMILES: COc1cc2c(cc1OC)C13CC[N+]4(C)CC5=CCOC6CC(=O)N2C1C6C5CC34[O-] (centres undefined)
- outcome: inactive

SMILES: CC12CCC(C3NC(=S)NN=C31)C2(C)C (centres undefined)
- EC50: > 302 µM
- IC50: > 302 µM

SMILES: CCCCCCC(C)c1ccc2c(c1)C(=O)c1nc3ccncc3c(=O)n1-2 (centres undefined)
- EC50: > 200 µM
- IC50: 0.955 µM

SMILES: O=C1c2ccccc2C(=O)N1Cc1ccccc1
- EC50: > 200 µM
- IC50: > 200 µM

SMILES: CC1(C)CC[C@]2(C(=O)OC3OC(CO)C(O)C(O)C3O)CCC3(C)C(=CCC4[C@@]5(C)C[C@H](O)[C@H](OC6OC(CO)C(O)C(O)C6O)[C@@](C)(C(=O)O)C5CC[C@]43C)C2C1 (some centres undefined)
- EC50: > 191 µM
- IC50: > 191 µM

SMILES: CC(=O)OC1SCC2OC(=O)OC21 (centres undefined)
- EC50: > 1230 µM
- IC50: > 1230 µM

SMILES: O=C(O)c1ccc(NCc2nc3ccccc3[nH]2)cc1
- EC50: > 200 µM
- IC50: > 200 µM

SMILES: CCc1c(C)c2cc(N)ccc2[nH]c1=O
- EC50: > 200 µM
- IC50: 29.5 µM

SMILES: CCOC(=O)C[P+](c1ccc(Cl)cc1)(c1ccc(Cl)cc1)c1ccc(Cl)cc1
- EC50: > 200 µM
- IC50: 18.6 µM

SMILES: CN(C)CCCNC(=O)c1cc(NC(=O)c2cc(NC(=O)c3cc(NC(=O)c4cccc(C(=O)Nc5cc(C(=O)Nc6cc(C(=O)Nc7cc(C(=O)NCCCN(C)C)n(C)c7)n(C)c6)n(C)c5)n4)cn3C)cn2C)cn1C
- EC50: > 100 µM
- IC50: > 100 µM

SMILES: CC(C)CC(NC(=O)C(CO)NC(=O)C(CCCCN)NC(=O)C(CCCCN)NC(=O)C(NC(=O)CNC(=O)C(C)NC(=O)C(CCCN=C(N)N)NC(=O)C(NC(=O)C(N)C(C)C)C(C)C)C(C)C)C(=O)O (centres undefined) (H-VVRAGVKKSL-OH; configuration not given here)
- outcome: inactive

SMILES: OCC1(CO)CCCC(CO)(CO)C1O
- EC50: > 200 µM
- IC50: > 200 µM

SMILES: CC(=O)OC[C@]1(C)CCCC2(C)C1CCC1C=C(C)[C@H]3CCC12C3 (some centres undefined)
- EC50: > 107 µM
- IC50: > 107 µM

SMILES: CNC(=O)N(C(C)(C)C)S(=O)(=O)c1ccc(Cl)cc1
- outcome: inactive

SMILES: COc1ccc(C2OC(c3ccncc3)=NN2C)cc1F (centres undefined)
- EC50: > 200 µM
- IC50: > 100 µM

SMILES: O=S(Cc1ccccc1)OOCCCCOS(=O)OCc1ccccc1 (centres undefined)
- EC50: > 200 µM
- IC50: 4.17 µM

SMILES: NCCCN1c2ccccc2Sc2ccc(Cl)cc21
- EC50: > 200 µM
- IC50: 10.7 µM

SMILES: CC(C)=CCC/C(C)=C/Cc1c(O)ccc2cc(-c3cc(O)cc(O)c3CC=C(C)C)oc12
- EC50: > 22.4 µM
- IC50: 18.2 µM

SMILES: COc1ccc(OC)c(/C=C(/C#N)c2ccccc2)c1
- EC50: > 10.2 µM
- IC50: > 10.2 µM

SMILES: Cc1cc(C)nc(NS(=O)(=O)c2ccc(N)cc2)n1
- EC50: > 200 µM
- IC50: > 200 µM

SMILES: O=C1CC2c3c(OCc4ccccc4)cc(OCc4ccccc4)cc3OC2O1 (centres undefined)
- EC50: > 25.7 µM
- IC50: > 25.7 µM

SMILES: CCOC(=O)/C(=C\c1ccc(N(CCC#N)CCC#N)cc1)NC(=O)c1cc([N+](=O)[O-])ccc1Cl
- EC50: > 10.5 µM
- IC50: > 10.5 µM

SMILES: CCOC(=O)c1c2ccccc2n2c(=O)n(C)nnc12
- EC50: > 200 µM
- IC50: > 200 µM

SMILES: C=C(C)[C@@H]1CC[C@]2(COC(=O)CC(C)(CC)CC(=O)O)CC[C@]3(C)[C@H](CC[C@@H]4[C@@]5(C)CC[C@H](OC(=O)CC(C)(CC)CC(=O)O)C(C)(C)[C@@H]5CC[C@]43C)[C@@H]12 (some centres undefined)
- EC50: > 200 µM
- IC50: 9.55 µM

SMILES: Cc1cn(C2CC3C(COC(C)N3O)O2)c(=O)[nH]c1=O (centres undefined)
- EC50: > 200 µM
- IC50: > 200 µM

SMILES: CCCC(=O)N[C@H]1C2C3CC4C5CC(C42)C1(C)C53 (some centres undefined)
- EC50: > 275 µM
- IC50: > 275 µM

SMILES: CSc1nc(N)nc(N)n1
- EC50: > 200 µM
- IC50: > 200 µM

SMILES: COc1ccccc1NC(=O)C(/C=N/C(N)=S)=C(\C)O
- EC50: > 200 µM
- IC50: > 200 µM
